Reference: patent publication US7323318B2, “Assay for distinguishing live and dead cells” (priority 2004, dated 2008)

How the values were obtained:
[1] = tested on: live cells and dead cells; assay: Total cell area in live and dead cells (pixel count within segmented boundary); format: cell-based; details: FIG. 6B
Method: The area was determined from a pixel count within the boundary determined by segmentation. […] A simple consideration of the average cell area for all cells (including live cells and dead cells) would likely mask the fact that the higher concentrations of the drug cause dead cells to become progressively larger. The effect of the live cells masks, somewhat, the effect on the dead cells. […] Note that the average area of the live and dead cells together is shown as lines 611 in FIG. 6B. Note also that, as with the plot in FIG. 6A, the live cells were discriminated from dead cells using the mean DM1-α intensity of each cell.

[2] = tested on: TGN (trans-Golgi network); details: FIG. 6C; increasing concentrations
Text: As with FIGS. 6A and 6B, the live-dead discrimination in FIG. 6C was made using mean DM1-α intensity (per cell).

[3] = tested on: population of cells; assay: Image-based live-dead cell assay using mean tubulin marker (DM1-α) intensity per cell
Text: FIG. 1 presents two images of cells: a left image of a control population of cells treated with DMSO, and a right image of a test population of cells treated with the compound carbonyl cyanide 3-chlorophenylhydrazone (herein CCCP), a poison which acts on the cellular respiratory pathway. After treatment with DMSO or CCCP, the cells were fixed and stained with multiple markers. Three of these markers are shown in the image: red indicates DNA, blue indicates tubulin, and green indicates the trans-Golgi network. […] Note that individual cells are identified (whether alive or dead) by a small red area in the central region. This red area is associated with DNA in the cell nucleus. […] This is not necessarily an indication that the dead cells have increased levels of Golgi.
FIG. 2 presents a flowchart depicting one method for producing a model that can be used to determine whether an individual cell is live or dead. As shown in a block 203, the method begins by preparing the cell populations that are to be used for imaging. In certain embodiments, a sandwich culture is employed. In this preliminary operation, some cell populations are treated as controls (assumed to have a high fraction of cells that are alive) and other cell populations are treated as test samples (assumed to have a significant fraction of cells that are dead). Upon completion of treatment, cells are fixed and stained with appropriate markers. The test cells will all have been treated with a compound or other stimulus known to kill a significant percentage of the cells in a given population. Together, the control and test cell populations provide relatively large numbers of live and dead cells. The size of these populations should be large enough to provide a training set sufficient to generate a model that can reliably distinguish live cells from dead cells.
An exemplary two-step segmentation process is illustrated in FIGS. 3A and 3B. FIG. 3A presents the result of the first step. As shown there, two images (the left one for a control population treated with DMSO and the right one for a test population treated with 2.5 μM CCCP) show nuclei circled in the interiors of individual cells. Cellular DNA was stained with Hoechst […], which emits fluorescence at a wavelength selectively collected in the FIG. 3A image to permit identification of the individual nuclei. Each such nucleus is presumed to belong to a separate cell.
FIG. 3B presents the results of the second step of the cell segmentation procedure. As shown, the cell populations of FIG. 3A are again presented, but this time at the Alexa 647 channel (i.e., the bright regions in the image locate the source of radiation emitted at the wavelength of Alexa 647). […] The cell boundaries so identified are circled within the images. Each cell boundary defines a collection of pixels that are deemed to belong to a particular cell. For image processing those pixels are used extracting information about the particular cell in question.
After the boundaries of each cell have been identified, the appropriate live-dead indicator feature can be extracted on a cell-by-cell basis. See block 209. As indicated above, the intensity of a marker for tubulin (an indicator of local tubulin concentration within the cell) can be identified for each pixel in a given cell. Each cell will be characterized on the basis of its level of tubulin, whether based on an average value over all pixels in the cell, a maximum or minimum value within the cell, or some other indicator of tubulin quantity. In a preferred embodiment, the mean tubulin marker intensity is calculated over the pixels in a cell and the resulting value is employed as the live-dead indicator feature.
Additional images are presented in FIG. 3C, highlighting the marker DM1-α for tubulin. […] Note that live and dead cells can be usually distinguished by visual inspection. […]

Question: What does the source list for `O=C(O)Cc1ccccc1Nc1c(Cl)cccc1Cl` [diclofenac]?
Answer: total area of the live cells ([1]; beginning at approximately the same concentration (arbitrary 100)): gradually decreased; area of the dead cells ([1]; from the arbitrary concentration of 100 in the plot): begins to increase rather dramatically

Question: `Nc1c2c(nc3ccccc13)CCCC2` [tacrine] was tested. Which “Golgi (TGN) marker intensity signal in dead cells” value [2] did it give?
Answer: relatively minimal affect

Question: What about the “mean Golgi (TGN) marker intensity signal in live cells” value [2] of the same compound?
Answer: dramatically increase

Question: `N#CC(C#N)=NNc1cccc(Cl)c1` [CCCP, carbonyl cyanide 3-chlorophenylhydrazone] was tested. Which “number of cells with significant tubulin concentration versus DMSO control” value ([3]; FIG. 1, fixed and stained cells, tubulin marker (blue)) did it give?
Answer: far fewer cells with significant tubulin concentration

Question: What about the “percentage of dead cells versus DMSO control population” value ([3]; FIG. 3C, 2.5 μM CCCP, DM1-α tubulin channel) of the same compound?
Answer: far higher percentage of dead cells

Question: What about the “mean tubulin marker intensity per cell (histogram) versus control cells” value ([3]; FIG. 4B, 0.625 μM to 5 μM CCCP for 24 hours, test cells pooled with control cells) of the same compound?
Answer: a relatively large fraction of the cells have a mean tubulin marker intensity well below that associated with the control cells

Question: What about the “concentration at which the number of live cells begins to decrease” value ([3]; FIG. 6A, normalized concentration, decrease at roughly the same rate as the dead cell increase) of the same compound?
Answer: about 0.5 μM

Question: And the “concentration at which the number of dead cells begins to increase dramatically” value ([3]; FIG. 6A, normalized concentration, live/dead discriminated by mean DM1-α intensity, samples of around 800 cells)?
Answer: about 0.5 μM

Question: What about the “total number of cells (number of objects, DNA spots) across concentrations” value ([3]; FIG. 6A, three samples of around 800 cells each) of the same compound?
Answer: remain approximately constant
